Data published in patent US9751869B2, “LXR modulators” (BRISTOL-MYERS SQUIBB COMPANY, priority 2013, dated 2017).

Molecular target: T1, LXRβ (Homo sapiens, UniProt P55055)
T1 construct: Co-transfection expression plasmids, comprising full-length LXRα (pCMX-h LXRα or LXRβ (pCMX-hLXRβ)); expressed in transfected cells; host or cells: CV-1 African green monkey kidney cells, transient transfection with pCMX-hLXRβ
T1 sequence (P55055 1-460): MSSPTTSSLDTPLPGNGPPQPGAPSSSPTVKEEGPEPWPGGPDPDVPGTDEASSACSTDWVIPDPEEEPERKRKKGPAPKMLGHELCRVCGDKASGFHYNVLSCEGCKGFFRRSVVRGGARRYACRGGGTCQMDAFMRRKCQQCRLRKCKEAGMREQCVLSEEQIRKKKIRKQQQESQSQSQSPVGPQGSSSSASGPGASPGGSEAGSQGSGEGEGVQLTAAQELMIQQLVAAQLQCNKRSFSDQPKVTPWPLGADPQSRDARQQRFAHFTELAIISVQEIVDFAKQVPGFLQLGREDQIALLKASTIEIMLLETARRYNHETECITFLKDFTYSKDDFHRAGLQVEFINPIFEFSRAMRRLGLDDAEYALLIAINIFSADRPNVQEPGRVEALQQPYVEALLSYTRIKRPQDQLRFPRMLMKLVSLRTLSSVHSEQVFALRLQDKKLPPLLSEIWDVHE
T1 sequence (P19793 1-462 partner): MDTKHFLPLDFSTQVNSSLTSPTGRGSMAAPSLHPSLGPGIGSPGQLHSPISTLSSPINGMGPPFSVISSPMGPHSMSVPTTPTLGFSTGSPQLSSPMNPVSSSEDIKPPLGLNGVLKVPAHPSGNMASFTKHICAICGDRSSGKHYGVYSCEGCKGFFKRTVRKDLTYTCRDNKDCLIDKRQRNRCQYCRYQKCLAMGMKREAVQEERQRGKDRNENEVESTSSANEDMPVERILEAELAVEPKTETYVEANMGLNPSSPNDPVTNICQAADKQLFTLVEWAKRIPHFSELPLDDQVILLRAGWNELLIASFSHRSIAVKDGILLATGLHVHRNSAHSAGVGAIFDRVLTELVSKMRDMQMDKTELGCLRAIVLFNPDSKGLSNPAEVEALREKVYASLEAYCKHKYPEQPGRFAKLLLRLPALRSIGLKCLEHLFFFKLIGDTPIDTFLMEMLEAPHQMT
Assay: LXR/LXRE co-transfection assay (luciferase reporter) in CV-1 cells, LXRβ
Format: cell-based
Settings: for EC50: CV-1 cells transfected with pCMX-hLXRβ and LXREx1-Tk-Luciferase, 20 hours incubation, read-out: LXRbeta agonism EC50; for Emax: CV-1 cells, relative to maximum response of high control N-(3-((4-fluorophenyl)-(naphthalene-2-sulfonyl)amino)propyl)-2,2-dimethylpropionamide, read-out: LXRbeta % EFFICACY
How it was run: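 Luciferase read-out after 20 h compound treatment at 37 °C of CV-1 cells carrying transfected hLXRβ plus one-copy LXRE reporter, endogenous RXR partnering. Sigmoidal fit of 10-point half-log curves (4 wells each) gave EC50; % efficacy versus maximal response of the propionamide reference agonist.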

EC50 [nM]	Emax [%]	SMILES
59	99	CNS(=O)(=O)c1cccc(-c2ccc(-c3cc(C(F)(F)F)nn3C)c(-c3oc(C)nc3-c3ccc(OC(F)(F)F)cc3)c2)c1 [Example 127, N-methyl-4′-(1-methyl-3-(trifluoromethyl)-1H-pyrazol-5-yl)-3′-(2-methyl-4-(4-(trifluoromethoxy)phenyl)oxazol-5-yl)-[1,1′-biphenyl]-3-sulfonamide]
1110	58	Cc1nc(-c2ccc(OC(F)(F)F)cc2)c(-c2cc(-c3cc(F)c(CO)c(S(C)(=O)=O)c3)ccc2-n2ccc(CO)n2)o1 [Example 322, (3-fluoro-4′-(3-(hydroxymethyl)-1H-pyrazol-1-yl)-3′-(2-methyl-4-(4-(trifluoromethoxy)phenyl)oxazol-5-yl)-5-(methylsulfonyl)biphenyl-4-yl)methanol]
186	58	CS(=O)(=O)c1cccc(-c2ccc(-n3ccc(C(F)(F)F)n3)c(-c3oc(C4CC4)nc3-c3ccc(OC(F)(F)F)cc3)c2)c1 [Example 338, 2-cyclopropyl-5-(3′-(methylsulfonyl)-4-(3-(trifluoromethyl)-1H-pyrazol-1-yl)biphenyl-3-yl)-4-(4-(trifluoromethoxy)phenyl)oxazole]
5	64	Cc1nc(-c2ccc3c(c2)OC(F)(F)O3)c(-c2cc(-c3ccc(CO)c(S(C)(=O)=O)c3)ccc2-n2nc(C(F)(F)F)cc2C)o1 [Example 330, (3′-(4-(2,2-difluorobenzo[d][1,3]dioxol-5-yl)-2-methyloxazol-5-yl)-4′-(5-methyl-3-(trifluoromethyl)-1H-pyrazol-1-yl)-3-(methylsulfonyl)biphenyl-4-yl)methanol]
122	61	CNC(=O)C(F)(F)c1cc(-c2ccc(-c3cc(F)c(CO)c(S(C)(=O)=O)c3)cc2-c2oc(C)nc2-c2ccc3c(c2)OC(F)(F)O3)n(C)n1 [Example 50, 2-(5-(3-(4-(2,2-difluorobenzo[d][1,3]dioxol-5-yl)-2-methyloxazol-5-yl)-3′-fluoro-4′-(hydroxymethyl)-5′-(methylsulfonyl)biphenyl-4-yl)-1-methyl-1H-pyrazol-3-yl)-2,2-difluoro-N-methylacetamide]
20	59	Cc1nc(-c2ccc(OC(F)(F)F)cc2)c(-c2cc(-c3cc(F)c(CO)c(S(C)(=O)=O)c3)ccc2-n2ccc(C(C)(F)F)n2)o1 [Example 313, (4′-(3-(1,1-difluoroethyl)-1H-pyrazol-1-yl)-3-fluoro-3′-(2-methyl-4-(4-(trifluoromethoxy)phenyl)oxazol-5-yl)-5-(methylsulfonyl)-[1,1′-biphenyl]-4-yl)methanol]
2320	79	Cn1nc(C(F)(F)C(N)=O)cc1-c1ccc(-c2cc(F)c(CO)c(S(C)(=O)=O)c2)cc1-n1nncc1-c1ccc(OC(F)(F)F)cc1 [Example 8, 2,2-difluoro-2-(5-(3′-fluoro-4′-(hydroxymethyl)-5′-(methylsulfonyl)-3-(5-(4-(trifluoromethoxy)phenyl)-1H-1,2,3-triazol-1-yl)biphenyl-4-yl)-1-methyl-1H-pyrazol-3-yl)acetamide]
52	60	Cc1nc(-c2ccc(OC(F)(F)F)cc2)c(-c2cc(-c3cccc(S(C)(=O)=O)c3)ccc2-n2ccc(C(C)(F)F)n2)o1 [Example 442, 5-(4-(3-(1,1-difluoroethyl)-1H-pyrazol-1-yl)-3′-(methylsulfonyl)-[1,1′-biphenyl]-3-yl)-2-methyl-4-(4-(trifluoromethoxy)phenyl)oxazole]
12	109	Cc1c(C(C)(F)F)nn(C)c1-c1ccc(-c2cc(F)c(CO)c(S(C)(=O)=O)c2)cc1-n1nncc1-c1ccc(OC(F)(F)F)cc1 [Example 5]
244	55	Cc1nc(-c2ccc3c(c2)OC(F)(F)O3)c(-c2cc(-c3cc(F)c(CO)c(S(C)(=O)=O)c3)ccc2-c2cc(C(=O)NCC3CC3)nn2C)o1 [Example 110, N-(cyclopropylmethyl)-5-(3-(4-(2,2-difluorobenzo[d][1,3]dioxol-5-yl)-2-methyloxazol-5-yl)-3′-fluoro-4′-(hydroxymethyl)-5′-(methylsulfonyl)-[1,1′-biphenyl]-4-yl)-1-methyl-1H-pyrazole-3-carboxamide]
35	70	Cc1nc(-c2ccc(OC(F)(F)F)cc2)c(-c2cc(-c3cc(F)c(CO)c(S(C)(=O)=O)c3)ccc2-n2nc(C(F)(F)F)cc2C)o1 [Example 332, (3-fluoro-4′-(5-methyl-3-(trifluoromethyl)-1H-pyrazol-1-yl)-3′-(2-methyl-4-(4-(trifluoromethoxy)phenyl)oxazol-5-yl)-5-(methylsulfonyl)biphenyl-4-yl)methanol]
950	18	Cc1nc(-c2ccc3c(c2)OC(F)(F)O3)c(-c2cc(-c3cccc(C(C)(C)C(N)=O)c3)ccc2-n2ccc(C(N)=O)n2)o1 [Example 364, 1-(3′-(1-amino-2-methyl-1-oxopropan-2-yl)-3-(4-(2,2-difluorobenzo[d][1,3]dioxol-5-yl)-2-methyloxazol-5-yl)-[1,1′-biphenyl]-4-yl)-1H-pyrazole-3-carboxamide]
73	60	Cc1nc(-c2ccc(OC(F)F)c(F)c2)c(-c2cc(-c3cccc(S(C)(=O)=O)c3)ccc2-c2cc(C(F)(F)C(N)=O)nn2C)o1 [Example 72, 2-(5-(3-(4-(4-(difluoromethoxy)-3-fluorophenyl)-2-methyloxazol-5-yl)-3′-(methylsulfonyl)biphenyl-4-yl)-1-methyl-1H-pyrazol-3-yl)-2,2-difluoroacetamide]
1760	43	Cn1nc(C(F)(F)C(N)=O)cc1-c1ccc(-c2cccc(S(C)(=O)=O)c2)cc1-n1nncc1-c1ccc(Cl)cc1Cl [Example 32, 2-(5-(3-(5-(2,4-dichlorophenyl)-1H-1,2,3-triazol-1-yl)-3′-(methylsulfonyl)-[1,1′-biphenyl]-4-yl)-1-methyl-1H-pyrazol-3-yl)-2,2-difluoroacetamide]
70	48	Cc1nc(-c2ccc(OC(F)(F)F)cc2)c(-c2cc(-c3cc(F)c(CO)c(S(C)(=O)=O)c3)ccc2-n2ccc(C3CC3)n2)o1 [Example 315, (4′-(3-cyclopropyl-1H-pyrazol-1-yl)-3-fluoro-3′-(2-methyl-4-(4-(trifluoromethoxy)phenyl)oxazol-5-yl)-5-(methylsulfonyl)-[1,1′-biphenyl]-4-yl)methanol]
227	93	Cc1cc(C(F)(F)F)nn1-c1ccc(-c2cc(Cl)c(CO)c(S(C)(=O)=O)c2)cc1-n1nncc1-c1ccc(OC(F)(F)F)cc1 [Example 302, [3-chloro-5-(methylsulfonyl)-4′-[5-methyl-3-(trifluoromethyl)-1H-pyrazol-1-yl]-3′-(5-{4-[(trifluoromethyl)oxy]phenyl}-1H-1,2,3-triazol-1-yl)biphenyl-4-yl]methanol]
35	92	Cc1nc(-c2ccc3c(c2)OC(F)(F)O3)c(-c2cc(-c3cc(F)c(CO)c(S(C)(=O)=O)c3)ccc2-n2nc(C(F)(F)F)cc2Cl)o1 [Example 347, (4′-(5-chloro-3-(trifluoromethyl)-1H-pyrazol-1-yl)-3′-(4-(2,2-difluorobenzo[d] [1,3]dioxol-5-yl)-2-methyloxazol-5-yl)-3-fluoro-5-(methylsulfonyl)biphenyl-4-yl)methanol]
2730	91	Cn1nc(C(F)(F)CO)cc1-c1ccc(-c2cc(F)c(CO)c(S(C)(=O)=O)c2)cc1-n1nncc1-c1ccc2c(c1)OC(F)(F)O2 [Example 36, 2-(5-(3-(5-(2,2-difluorobenzo[d][1,3]dioxol-5-yl)-1H-1,2,3-triazol-1-yl)-3′-fluoro-4′-(hydroxymethyl)-5′-(methylsulfonyl)-[1,1′-biphenyl]-4-yl)-1-methyl-1H-pyrazol-3-yl)-2,2-difluoroethanol]
50	83	Cc1nc(-c2ccc(OC(F)F)c(F)c2)c(-c2cc(-c3cccc(S(C)(=O)=O)c3)ccc2-n2cc(Cl)c(C(F)(F)F)n2)o1 [Example 433]
